According to doi:10.1101/2020.10.13.337584v1 (bioRxiv, 2020):

Legend:
[1] = test system: SARS-CoV2 (SARS CoV-2 USA_WA1/2020) in VERO E6 cells; format: cell-based
[2] = Health-related side-effects after daily intranasal administration; format: in vivo; conditions: 0.1 mg/Kg intranasal daily for 10 days, BALB/C mice

CC(C)[C@H](NC(=O)CNC(=O)[C@H](CC(N)=O)NC(=O)[C@@H](NC(=O)[C@@H]1CCCN1C(=O)[C@H](CCC(N)=O)NC(=O)[C@H](Cc1ccccc1)NC(=O)CNC(=O)[C@H](Cc1ccc(O)cc1)NC(=O)CCCC[C@@H]1SC[C@@H]2NC(=O)N[C@@H]21)[C@@H](C)O)C(=O)NCC(=O)N[C@@H](Cc1ccc(O)cc1)C(=O)N[C@@H](CCC(N)=O)C(=O)N1CCC[C@H]1C(=O)O [KEpTide 1]
Grey density (1:20) of crystal violet staining of agar monolayer [1]: 34 ± 32.73
Skin roughness or diarrhea at the end of day 10 [2]: did not see other health issue
Effect on heart rate ([2]; n=6 per group, p = 0.0758): did not cause any loss
Effect on respiratory health (oxygen saturation) ([2]; n=6 per group, p = 0.3217): did not cause any loss
Effect on body temperature ([2]; n=6 per group, p = 0.5541): did not cause any loss
